In BindingDB's records for patent US9777020 (AbbVie Inc, 2017):
pIC50: −log10 of the molar value.

Molecular target: High affinity nerve growth factor receptor (Homo sapiens, UniProt P04629)
Sequence (P04629 whole entry): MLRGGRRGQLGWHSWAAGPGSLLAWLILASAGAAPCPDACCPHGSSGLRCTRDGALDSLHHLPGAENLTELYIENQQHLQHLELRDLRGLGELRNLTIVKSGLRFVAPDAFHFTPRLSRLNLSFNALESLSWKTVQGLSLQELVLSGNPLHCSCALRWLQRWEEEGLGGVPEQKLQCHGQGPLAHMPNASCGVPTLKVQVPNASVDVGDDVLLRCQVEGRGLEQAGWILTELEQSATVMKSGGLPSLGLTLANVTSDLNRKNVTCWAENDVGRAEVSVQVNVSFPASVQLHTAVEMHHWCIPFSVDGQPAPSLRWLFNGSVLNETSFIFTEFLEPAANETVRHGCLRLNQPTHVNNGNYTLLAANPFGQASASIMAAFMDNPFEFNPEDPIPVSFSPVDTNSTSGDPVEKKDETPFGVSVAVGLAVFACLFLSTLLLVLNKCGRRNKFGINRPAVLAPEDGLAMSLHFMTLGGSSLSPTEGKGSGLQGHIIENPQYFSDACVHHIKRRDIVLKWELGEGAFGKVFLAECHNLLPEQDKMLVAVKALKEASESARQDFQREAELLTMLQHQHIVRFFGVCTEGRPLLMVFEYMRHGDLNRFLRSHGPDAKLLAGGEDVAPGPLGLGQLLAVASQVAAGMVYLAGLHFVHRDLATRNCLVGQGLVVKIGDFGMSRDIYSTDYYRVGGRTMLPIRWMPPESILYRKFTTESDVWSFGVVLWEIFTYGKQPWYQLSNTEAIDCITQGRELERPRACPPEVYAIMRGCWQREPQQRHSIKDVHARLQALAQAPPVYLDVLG

pIC50 | Structure (SMILES)
7.16 | Cc1nc2ccc(NC(=O)c3coc4c3C(=O)NCC4)cc2s1 [US9777020, Example 15]
7.54 | CCOc1nc(N2CCOCC2)ccc1NC(=O)c1coc2c1C(=O)NCC2 [US9777020, Example 106]
